Patent publication US11591341B2 (ALIGOS THERAPEUTICS, INC., priority 2019, dated 2023)

The molecules below were run on HBV (assay: HBV-DNA Antiviral Assay Using HepG2.2.15 Cells (extracellular HBV DNA by qPCR)). Settings: Hepatitis B virus, 168 h; HBV DNA inhibition, HepG2.2.15 cells, extracellular HBV DNA by qPCR on day 7; read-out: EC50.
Assay type: cell-based
Procedure: The following assay procedure describes the HBV antiviral assay. This assay uses HepG2.2.15 cells, which have been transfected with HBV genome, and extracellular HBV DNA quantification as endpoint. Cell viability is assessed in parallel by measuring the intracellular ATP content using the CellTiter-Glo© reagent from Promega.
On day 0, HepG2.2.15 cells were seeded in 96-well plates at a density of 6.0×10^4 cells/well (0.1 mL/well). The cells were incubated at 37° C. and 5% CO2.
On day 1, the test articles were diluted and added to cell culture wells (8 concentrations, 4-fold dilution, in duplicate). GLS4, Tenofovir and Sorafenib were used as reference compounds. 100 μL of culture medium containing the compounds was added to the plate, and the final total volume per well was 200 μL. The final concentration of DMSO in the culture medium was 0.5%. The plate map of compound treatment is shown below. The cells were cultured at 37° C. and 5% CO2 for 3 days.
On day 4, the plates were refreshed with culture media with compounds.
On day 7, cell viability was assessed using the CellTiter-Glo, and the cell culture supernatants were collected for determination of HBV DNA by qPCR.
Extracellular DNA was isolated with QIAamp 96 DNA Blood Kit per the manufacturer's manual. HBV DNA was then quantified by qPCR with HBV specific primers and probes as specified in Table 1 using the FastStart Universal MasterMix from Roche on an ABI-7900HT. The PCR cycle program consisted of 95° C. for 10 min, followed by 40 cycles at 95° C. for 15 sec and 60° C. for 1 min.
A DNA standard was prepared by dilution of the pAAV2 HBV1.3 plasmid with concentrations ranging from 10 to 1×10^7 copies/μL and used to generate a standard curve by plotting Ct value vs. the concentration of the HBV plasmid DNA standard. The quantity of HBV DNA in each sample was determined by interpolating from the standard curve.
Cell viability was calculated as follows: % Cell viability=(luminescence value of test sample−average luminescence value of blank)/(average luminescence value of 0.5% DMSO control−average luminescence of blank)×100%. HBV DNA inhibition was calculated as follows: 100-(HBV DNA copy number of test sample−HBV DNA copy number of ETV)/HBV DNA copy number of 0.5% DMSO control−HBV DNA copy number of ETV)×100%. The CC50, EC50 and EC90 values were determined by dose-response curves fitted by GraphPad Prism using “log (agonist) vs. response—Variable slope”.
`O=C(NCc1ccccc1-c1nccnn1)c1c2n(c(=O)n1-c1ccc(OC3CC3)cc1)CCN(C(=O)c1ccc(Br)c(Cl)c1)C2` [Example 463, 7-(4-bromo-3-chloro-benzoyl)-2-[4-(cyclopropoxy)phenyl]-3-oxo-N-[[2-(1,2,4-triazin-3-yl)phenyl]methyl]-6,8-dihydro-5H-imidazo[1,5-a]pyrazine-1-carboxamide] showed an EC50 of 100 to 500 nM.
For `O=C1NCCCn2c1c1n(c2=O)CCN(C(=O)Nc2ccc(F)c(Cl)c2)C1` [Example 1, N-(3-chloro-4-fluorophenyl)-6,12-dioxo-1,3,4,8,9,10,11,12-octahydro-2H,6H-pyrazino[1′,2′:3,4]imidazo[1,5-a][1,4]diazepine-2-carboxamide], the EC50 was > 5000 nM.
For `COc1ccc(CN2CCn3c(c4n(c3=O)CCN(C(=O)c3ccc(Br)c(Cl)c3)C4)C2=O)cc1` [Example 19, 12-(4-bromo-3-chloro-benzoyl)-4-[(4-methoxyphenyl)methyl]-4,7,9,12-tetrazatricyclo[7.4.0.0^2,7]tridec-1-ene-3,8-dione], the EC50 was > 5000 nM.
With `O=C1NCCCn2c1c1n(c2=O)CCN(C(=O)c2ccc(Br)c(Cl)c2)C1` [Example 7, 2-(4-bromo-3-chlorobenzoyl)-1,2,3,4,8,9,10,11-octahydro-6H,12H-pyrazino[1′,2′:3,4]imidazo[1,5-a][1,4]diazepine-6,12-dione] the EC50 was > 5000 nM.
With `COc1ccc(CN2CCCn3c(c4n(c3=O)CCN(C(=O)Nc3ccc(F)c(Cl)c3)C4)C2=O)cc1` [Example 4, N-(3-chloro-4-fluorophenyl)-11-(4-methoxybenzyl)-6,12-dioxo-1,3,4,8,9,10,11,12-octahydro-2H,6H-pyrazino[1′,2′:3,4]imidazo[1,5-a][1,4]diazepine-2-carboxamide] the EC50 was < 100 nM.
`C[C@H](NC(=O)c1c2n(c(=O)n1-c1ccc(OC3CC3)cc1)CCN(C(=O)c1ccc(Br)c(Cl)c1)C2)c1ccccc1-n1cncn1` (stereo in doubt) [Example 473, 7-(4-bromo-3-chloro-benzoyl)-2-[4-(cyclopropoxy)phenyl]-3-oxo-N-[rac-(1S)-1-[2-(1,2,4-triazol-1-yl)phenyl]ethyl]-6,8-dihydro-5H-imidazo[1,5-a]pyrazine-1-carboxamide] was tested, and the EC50 was > 5000 nM.
With `O=C1NCCCn2c1c1n(c2=O)CCN(C(=O)c2ccc(Br)cc2)C1` [Example 5, 4-(4-bromobenzoyl)-4,7,9,13-tetraazatricyclo[7.5.0.0^[2,7]]tetradec-1-ene-8,14-dione] the EC50 was > 5000 nM.
`COc1ccc(CN2CCCn3c(c4n(c3=O)CCN(C(=O)c3ccc(Br)c(Cl)c3)C4)C2=O)cc1` [Example 9, 2-(4-bromo-3-chlorobenzoyl)-11-(4-methoxybenzyl)-1,2,3,4,8,9,10,11-octahydro-6H,12H-pyrazino[1′,2′:3,4]imidazo[1,5-a][1,4]diazepine-6,12-dione] showed an EC50 of 100 to 500 nM.
